Read-outs that look alike come from different tables or passages of the source.
System: Phytophthora infestans
Assay type: in vivo
Conditions: tomato leaves infected next day with zoospore suspension, evaluated after 6 days, untreated control 89% infection
[1] = conc. in the spray liquor 0.06 ppm
[2] = conc. in the spray liquor 0.25 ppm

| Compound | Efficacy in % of the untreated control [1] [%] | Efficacy in % of the untreated control [2] [%] |
| --- | --- | --- |
| COC(=O)N(OC)c1ccccc1COc1ccn(-c2ccc(Cl)cc2)n1 [Compound I.32] | 10 | 55 |
| COC(=O)N(OC)c1ccccc1COc1ccn(-c2ccc(C)cc2)n1 [Compound I.38] | 0 | 33 |
| CNC(=O)C(=NOC)c1ccccc1COc1cc(C)ccc1C [Compound III] | 0 | 33 |
| CON=C(C(=O)OC)c1ccccc1COc1ccccc1C [Compound II] | 10 | – |
| CC(C)OC(=O)NC(C(=O)NC(C)c1nc2ccc(F)cc2s1)C(C)C (centres unmarked) [Compound IV/1] | 21 | – |

Reference: patent US6436979B1 (priority 2000, dated 2002)
